Our source for the TGI values is PubChem BioAssay (NCI).

Test systems include 786-0 renal; A498 renal; ACHN renal; CCRF-CEM leukemia; DU-145 prostate; HOP-62 NSCLC; LOX IMVI melanoma; M14 melanoma; NCI-H23 lung; OVCAR-4 ovarian; PC-3 prostate; RXF 393 renal; SF-295 CNS; SR leukemia; UACC-62 melanoma.
Common to all, as to assay: NCI-60 cell line screen, 48 h

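Test compounds were applied to cells in 96-well plates for 48 hours at 5 doses. TGI: total growth inhibition.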

Turning to `CCOC(=O)C1=C(C)N(Cc2ccccc2)C2(O)C=CC(=O)C3=C(O)c4ccccc4C(=O)C312` (stereo not given), the TGI was determined as 26.2 µM in the assay with 786-0 renal; 60.3 µM in the assay with A498 renal; 34.6 µM in the assay on ACHN renal; 36.5 µM in the assay on CCRF-CEM leukemia; 38.3 µM with DU-145 prostate; 31.8 µM in the assay with HOP-62 NSCLC. The TGI in the assay with LOX IMVI melanoma was 36.6 µM; with M14 melanoma, 16.3 µM; with NCI-H23 lung, 26.7 µM; in the assay on OVCAR-4 ovarian it was 38.7 µM; with PC-3 prostate, more than 100 µM; in the assay on RXF 393 renal it was 19.7 µM. Moreover, the TGI in the assay with SF-295 CNS was determined as 31.4 µM; in the assay with SR leukemia it was 14.1 µM; in the assay with UACC-62 melanoma it was 31.1 µM.
Regarding `O=P(O)(O)CN1CCNCCN(CP(=O)(O)O)CC1`, the TGI in the assay with 786-0 renal was more than 100 µM; in the assay on A498 renal, more than 100 µM; in the assay on ACHN renal, more than 100 µM; with CCRF-CEM leukemia, more than 70.5 µM; in the assay on DU-145 prostate, more than 100 µM; in the assay with HOP-62 NSCLC it was more than 100 µM. Besides, the TGI in the assay with LOX IMVI melanoma, in the assay with M14 melanoma, in the assay with NCI-H23 lung, in the assay on OVCAR-4 ovarian, in the assay with PC-3 prostate and in the assay with RXF 393 renal was more than 100 µM each time. In addition, the results for the TGI in the assay on SF-295 CNS, in the assay on SR leukemia and in the assay with UACC-62 melanoma were more than 100 µM, more than 90.6 µM and more than 100 µM, respectively.
With `COc1cc2c3c(cc(Cl)nc3c1OC)C(O)(CC(=O)c1ccccc1)C(=O)N2` (stereo not given), the TGI was found to be 22 µM in the assay on 786-0 renal; 32.3 µM with A498 renal; 28.3 µM in the assay with ACHN renal; 12.5 µM with CCRF-CEM leukemia; 30.1 µM in the assay with DU-145 prostate; 36 µM with HOP-62 NSCLC. Besides, the TGI in the assay on LOX IMVI melanoma turned out to be 20.6 µM; with M14 melanoma, 30.5 µM; in the assay with NCI-H23 lung it was 36.9 µM; in the assay on OVCAR-4 ovarian it was 5.49 µM; in the assay with PC-3 prostate, 29.2 µM; in the assay on RXF 393 renal it was 27.4 µM. For the same compound, the TGI with SF-295 CNS is 32.8 µM; in the assay on SR leukemia it was more than 29 µM; with UACC-62 melanoma, 15.9 µM.
As to `Nc1cc2c3c(cccc3c1)C(=O)N(c1ccc(OCCN3CCCC3)cc1)C2=O`, the TGI was 31.5 µM in the assay with 786-0 renal; 91.5 µM with A498 renal; 26.5 µM in the assay on ACHN renal; 69 µM in the assay on CCRF-CEM leukemia; more than 92.8 µM with DU-145 prostate; 29.7 µM in the assay with HOP-62 NSCLC. Also, the TGI with LOX IMVI melanoma turned out to be 48.5 µM; in the assay on M14 melanoma it was 51.2 µM; with NCI-H23 lung, 28.2 µM; in the assay on OVCAR-4 ovarian, 33.8 µM; in the assay with PC-3 prostate it was 46.5 µM; with RXF 393 renal it was 32.2 µM. In addition, the TGI with SF-295 CNS came out at 27.4 µM; in the assay with SR leukemia, 50.9 µM; with UACC-62 melanoma, 33.3 µM.
`CC(C)NC(=O)OCc1c(COC(=O)NC(C)C)c(-c2cc[n+](COC(=O)C3CCCCC3)cc2)n2c1CCC2`: the TGI in the assay with 786-0 renal, in the assay on A498 renal, in the assay with ACHN renal, in the assay on CCRF-CEM leukemia, in the assay on DU-145 prostate and in the assay on HOP-62 NSCLC was more than 100 µM in each case. The TGI in the assay with LOX IMVI melanoma, in the assay with M14 melanoma, in the assay with NCI-H23 lung, with OVCAR-4 ovarian, in the assay on PC-3 prostate and in the assay on RXF 393 renal was more than 100 µM in each case. Further, the TGI in the assay on SF-295 CNS, with SR leukemia and in the assay with UACC-62 melanoma was more than 100 µM throughout.
For `CN(C)CCNC(=O)c1c(O)ccc2c1c1c(n2CCc2ccccc2)C(=O)c2ccccc2C1=O`, the TGI with 786-0 renal was 11.3 µM; in the assay on A498 renal it was 31.9 µM; in the assay with ACHN renal, 23 µM; in the assay on CCRF-CEM leukemia it was 6.43 µM; with DU-145 prostate, 20.9 µM; with HOP-62 NSCLC it was 23.1 µM. Moreover, the TGI stood at 6.93 µM in the assay on LOX IMVI melanoma; 3.47 µM in the assay on M14 melanoma; 28.8 µM in the assay on NCI-H23 lung; 24.6 µM with OVCAR-4 ovarian; 29.1 µM in the assay on PC-3 prostate; 5.17 µM in the assay on RXF 393 renal. The values for the TGI in the assay with SF-295 CNS, in the assay with SR leukemia and in the assay with UACC-62 melanoma were 15.9 µM, 7.11 µM and 5.56 µM, respectively.
For the compound `Cc1ccc(NC(=O)CC(=O)n2nc(C)c(N=Nc3cccc(C)c3)c2C)cc1`, the TGI in the assay on 786-0 renal, with A498 renal, in the assay on ACHN renal, in the assay with CCRF-CEM leukemia, in the assay with DU-145 prostate and in the assay with HOP-62 NSCLC was more than 100 µM each time. The TGI in the assay on LOX IMVI melanoma, in the assay with M14 melanoma, with NCI-H23 lung, in the assay on OVCAR-4 ovarian, in the assay on PC-3 prostate and with RXF 393 renal was more than 100 µM each time. Further, the TGI with SF-295 CNS, in the assay with SR leukemia and in the assay with UACC-62 melanoma was more than 100 µM in each case.
On to `CCOC(=O)C(C/C=C/CO)N(C)C(=O)OC(C)(C)C` (stereo not given), for which the TGI with 786-0 renal, in the assay with A498 renal, with ACHN renal, with CCRF-CEM leukemia, in the assay with DU-145 prostate and in the assay with HOP-62 NSCLC was more than 100 µM throughout. Moreover, the TGI in the assay on LOX IMVI melanoma, with M14 melanoma, with NCI-H23 lung, with OVCAR-4 ovarian, with PC-3 prostate and with RXF 393 renal was more than 100 µM in each case. Also, the TGI with SF-295 CNS, with SR leukemia and in the assay with UACC-62 melanoma was more than 100 µM in each case.
For `C=C1C(=O)OC2C3OC(C)(CCC(O)C3COC(C)=O)CC(OC(=O)/C(=C/C)COC(C)=O)C12` (stereo not given), the TGI with 786-0 renal worked out at 0.394 µM; with A498 renal, 3.05 µM; in the assay with ACHN renal, 0.452 µM; in the assay with CCRF-CEM leukemia, 0.269 µM; in the assay on DU-145 prostate it was 2.04 µM; in the assay with HOP-62 NSCLC, 10.1 µM. For the same compound, the TGI is 0.342 µM with LOX IMVI melanoma; 1.01 µM with M14 melanoma; 2.93 µM in the assay on NCI-H23 lung; 12.3 µM with OVCAR-4 ovarian; 4.49 µM with PC-3 prostate; 0.515 µM in the assay on RXF 393 renal. Moreover, the results for the TGI in the assay with SF-295 CNS, in the assay with SR leukemia and with UACC-62 melanoma were 22.3 µM, 0.713 µM and 0.971 µM, respectively.
